The source of these data is article PMC9119049 (Journal of medicinal chemistry, 2021).

Assay [1] relates to HEK293T cells. The experiment in a line: p21 immunoblotting in HEK293T cells. The conditions noted are these: 6 h drug exposure. (In general: A western blot detects proteins with antibodies after separation by electrophoresis.)
The test system of a further assay is PLK1. Nature of the assay: Phospho-TCTP. The conditions noted are these: MM1.S cells; 30 – 100 nM drug concentration; 6 h drug exposure; immunoblotting.
The test system of the next assay is MM1.S cells. The experiment in a line: Cell growth inhibition, CellTiter Blue. The conditions noted are these: 72 h drug exposure, single experiment in hexaplicate (± SEM). The format is cell-based.
In assay [2] the test system is HEK293T cells. Nature of the assay: Cell growth inhibition, CellTiter Blue. The format is cell-based. Particulars: 72 h drug exposure, single experiment in hexaplicate (± SEM).

The structures appear in SMILES notation.

`CC[C@@H]1C(=O)N(C)c2cnc(Nc3ccc(C(=O)NC4CCN(C)CC4)cc3OC)nc2N1C1CCCC1` [BI2536]: the p21Cip1 levels result in the assay with HEK293T cells [1] was “increased significantly”.
For the compound `CCOc1cc(C(=O)N2CCC(N3CCN(C)CC3)CC2)ccc1Nc1ncc2c(n1)N(C1CCCC1)c1ccccc1C(=O)N2C` [ERK5-IN-1], the p21Cip1 levels result in the assay with HEK293T cells [1] is “lacked the potential to increase”.
As for `C[C@@H](Oc1cc(-n2cnc3ccc(CN4CCN(C)CC4)cc32)sc1C(N)=O)c1ccccc1C(F)(F)F` [GSK461364], the “levels of phosphorylated TCTP (S46)” value in the assay with PLK1 is “significantly reduced”. Also, the “Cell growth inhibitory potential IC50” value with MM1.S cells and with HEK293T cells [2] was “low nanomolar” each time.
In the case of `COc1cc(C(=O)N2CCC(N3CCN(C)CC3)CC2)ccc1Nc1ncc2c(n1)N(C)c1ccccc1C(=O)N2C` [LRRK2-IN-1], in the assay with HEK293T cells [1], the p21Cip1 levels result is “increased significantly”.
As to `CC[C@@H]1C(=O)N(C)c2cnc(Nc3ccc(C(=O)N[C@H]4CC[C@H](N5CCN(CC6CC6)CC5)CC4)cc3OC)nc2N1C(C)C` [Volasertib], in the assay with HEK293T cells [1], the p21Cip1 levels entry is listed as “increased significantly”. Also, in the assay with PLK1, the “levels of phosphorylated TCTP (S46)” value is on record as “significantly reduced”.
Turning to `CCOc1cc(N2CCC(O)CC2)ccc1Nc1ncc2c(n1)N(C)c1ccccc1C(=O)N2C` [XMD8-92], the p21Cip1 levels entry in the assay with HEK293T cells [1] is recorded as “lacked the potential to increase”.
